ChEMBL document CHEMBL1201862, “PubChem BioAssay data set” (2004)
Active and inactive are the calls of the source.

What was measured:
[1] = Late stage results for the probe development effort to identify inhibitors of Plasmodium falciparum gametocytes: Luminescence-based cell-based high throughput dose response assay to identify inhibitors of viability of late stage Plasmodium falciparum gametocytes.; assay type: functional
Paired box protein Pax-8 = Paired box protein Pax-8 (Homo sapiens, UniProt Q06710); experiment: inhibitors of PAX8-driven TPO luciferase reporter, dose response, RMG-I cells, cherry-pick (AID 687027); assay type: functional, cell-based;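 note: luciferase reporter driven by Pax8 target thyroperoxidase promoter measured by SteadyGlo luminescence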
Sequence of Paired box protein Pax-8 (Q06710 whole entry): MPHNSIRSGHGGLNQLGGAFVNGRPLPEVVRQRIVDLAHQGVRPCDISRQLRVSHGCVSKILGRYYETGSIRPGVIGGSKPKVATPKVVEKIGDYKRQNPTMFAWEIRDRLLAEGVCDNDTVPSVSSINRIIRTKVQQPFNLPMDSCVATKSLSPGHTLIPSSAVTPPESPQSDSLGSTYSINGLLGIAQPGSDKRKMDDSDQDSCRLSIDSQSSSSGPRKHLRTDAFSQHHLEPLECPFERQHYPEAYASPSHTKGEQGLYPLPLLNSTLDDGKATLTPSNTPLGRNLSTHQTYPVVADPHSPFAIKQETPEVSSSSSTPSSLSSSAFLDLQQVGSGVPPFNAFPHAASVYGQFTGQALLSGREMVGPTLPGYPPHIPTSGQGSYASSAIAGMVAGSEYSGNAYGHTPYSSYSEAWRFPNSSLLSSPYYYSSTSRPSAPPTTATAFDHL

[2] = A2780 ovarian cancer cell cytotoxicity, dose response, cytotoxicity control, plate reader, dry powder samples (AID 743046); assay type: functional, cell-based
[3] = NIH:OVCAR-3 ovarian cancer cell cytotoxicity, dose response, PAX8 inhibitor project, plate reader, dry powder samples (AID 743044); assay type: functional, cell-based
[4] = IGROV1 ovarian cancer cell cytotoxicity, dose response, PAX8 inhibitor project, plate reader, dry powder samples (AID 743043); assay type: functional, cell-based; conditions: IGROV-1
[5] = non-specific cell cytotoxicity, dose response, cytotoxicity control for PAX8 inhibitor project, plate reader, dry powder samples (AID 743021); assay type: functional, cell-based
[6] = cytotoxicity in OVCAR8 ovarian cancer cells, dose response, PAX8 project, cell-based, plate reader, dry powder samples (AID 743197); assay type: functional; conditions: OVCAR-8
[7] = Dose-response inhibition of insulin secretion in a rat insulinoma line at 5 mM glucose (AID 1117331); assay type: functional, cell-based; conditions: INS-1E
[8] = half-maximal inhibitory concentration for glucagon-like peptide-1 release, STC-1 cell line, dose-response (AID 1117345); assay type: functional, cell-based
[9] = Glucagon-like peptide 1 release potency, NCI-H716 cell line, dose-response, half-maximal inhibitory concentration (AID 1117344); assay type: functional, cell-based
[10] = cytotoxicity in HPDE-C7 cells, cell-based, fluorescence, HTS (AID 430); assay type: functional; conditions: Homo sapiens
[11] = cytotoxicity in KRAS-transformed pancreatic duct cells, primary screen, cell-based, fluorescence, HTS (AID 431); assay type: functional; conditions: Homo sapiens;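 note: cell line used: HPDE-C7K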
[12] = Artemis endonuclease inhibitor potency, dose response, biochemical, fluorescence intensity (AID 720701); assay type: functional;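 note: Artemis endonuclease enzyme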
[13] = target: RNA-editing ligase 1, mitochondrial (Trypanosoma brucei brucei, UniProt P86926); experiment: TbREL1 ligase inhibitors, dose response, biochemical, fluorescence, Trypanosoma brucei (AID 1117295); assay type: functional
Sequence of RNA-editing ligase 1, mitochondrial (P86926 whole entry): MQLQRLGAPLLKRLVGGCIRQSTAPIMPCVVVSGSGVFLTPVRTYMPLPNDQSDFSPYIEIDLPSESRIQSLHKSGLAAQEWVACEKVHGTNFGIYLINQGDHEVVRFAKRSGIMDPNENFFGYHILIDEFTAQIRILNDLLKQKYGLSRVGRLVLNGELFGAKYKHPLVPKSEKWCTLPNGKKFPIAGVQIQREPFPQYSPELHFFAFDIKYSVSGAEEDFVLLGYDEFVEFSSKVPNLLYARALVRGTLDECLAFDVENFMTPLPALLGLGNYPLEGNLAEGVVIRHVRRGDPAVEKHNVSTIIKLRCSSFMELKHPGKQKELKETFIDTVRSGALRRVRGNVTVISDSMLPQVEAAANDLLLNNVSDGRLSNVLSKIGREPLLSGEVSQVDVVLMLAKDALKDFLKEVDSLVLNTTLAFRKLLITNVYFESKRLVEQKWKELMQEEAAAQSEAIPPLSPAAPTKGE

[14] = P. falciparum Dd2 blood-stage growth inhibition, dose response, SYBR Green fluorescence, erythrocytes, dry powder, set 2 (AID 1159574); assay type: functional, cell-based
[15] = Late stage assay provider results from the probe development effort to identify inhibitors of the Plasmodium falciparum M18 Aspartyl Aminopeptidase (M18AAP): radiolabel-based cell-based dose response assay to identify compounds that inhibit P. falciparum growth in RBCs, Set 2..; assay type: functional
[16] = inhibitors of intracellular T. cruzi replication, confirmation, NIH3T3 host cells, beta-gal luminescence (AID 2044); assay type: functional, cell-based;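 note: intracellular parasites grown in NIH/3T3 mouse fibroblasts as host cells; luminescent beta-galactosidase reporter signal from transgenic T. cruzi replicating inside host cells; inhibitors lower the luminescence signal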
[17] = cytotoxicity toward NIH3T3 fibroblasts, dose response, counter-screen, cell-based, ATP luminescence, mouse fibroblasts (AID 2010); assay type: functional;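 note: cells exposed to compound for about 90 hours before reading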
[18] = target: NAD-dependent protein deacylase sirtuin-5, mitochondrial (Homo sapiens, UniProt Q9NXA8); experiment: SIRT5 desuccinylase inhibitors, dose response, biochemical, fluorescence imaging, cherry-pick, set 5 (AID 720591);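 note: desuccinylation of succinyl peptide AMC substrate read as fluorescence after trypsin release; potency of inhibitors that lower fluorescence and may act on trypsin instead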
Sequence of NAD-dependent protein deacylase sirtuin-5, mitochondrial (Q9NXA8 whole entry): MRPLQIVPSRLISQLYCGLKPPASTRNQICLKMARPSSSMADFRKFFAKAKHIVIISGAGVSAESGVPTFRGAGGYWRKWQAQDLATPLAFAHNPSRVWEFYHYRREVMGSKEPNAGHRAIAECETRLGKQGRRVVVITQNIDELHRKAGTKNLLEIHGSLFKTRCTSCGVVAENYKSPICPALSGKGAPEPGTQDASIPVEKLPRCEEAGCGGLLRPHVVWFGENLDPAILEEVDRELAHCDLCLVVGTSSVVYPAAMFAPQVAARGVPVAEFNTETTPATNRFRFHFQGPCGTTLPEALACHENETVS

**Q.** Which IC50 [1] does the source give for Cc1ccc(-c2nn(-c3ccccc3)cc2C(=O)Nc2nccs2)cc1 here?
**A.** Its IC50 is > 74.4 µM (inactive).

**Q.** Which AC50 (Paired box protein Pax-8) does the source give for C[C@H](CO)N1C[C@H](C)[C@H](CN(C)Cc2ccc(C(F)(F)F)cc2)OCCCC[C@H](C)Oc2ccc(NC(=O)Cc3ccccc3)cc2C1=O here?
**A.** The AC50 was 6.42 µM (active).

**Q.** And the AC50 [2]?
**A.** The AC50 was 49 µM (active).

**Q.** And the AC50 [3]?
**A.** The AC50 was 35.4 µM (active).

**Q.** What about the AC50 [4] of the same molecule?
**A.** Its AC50 is 25.6 µM (active).

**Q.** And the AC50 [5]?
**A.** Its AC50 is 69.3 µM (active).

**Q.** And the AC50 [6]?
**A.** Its AC50 is 67 µM (active).

**Q.** With Cn1cc([S+](C)[O-])c(=O)c2ccc(F)cc21 (centres undefined) [FLOSEQUINAN] as the molecule, how does the IC50 [7] read?
**A.** The IC50 was > 33.3 µM (inactive).

**Q.** What about the IC50 [8] of the same molecule?
**A.** Its IC50 is > 40 µM (inactive).

**Q.** And the IC50 [9]?
**A.** Its IC50 is > 40 µM (inactive).

**Q.** Which results are given for Nc1c(C(=O)NC2CCCC2)c2nc3ccccc3nc2n1CC1CCCO1 (centres undefined)?
**A.** EC50 [10]: 14.4 µM (active); EC50 [11]: 13.2 µM (active); IC50 [12]: > 20 µM (inactive); IC50 [13]: 21.1 µM (inactive)

**Q.** Which AC50 [14] does the source give for COc1cccc(C#Cc2ccc([C@@H]3[C@H](CO)N4C(=O)CN(C(=O)Cc5ccccc5)C[C@@H]34)cc2)c1 here?
**A.** Its AC50 is > 20 µM (inactive).

**Q.** With COc1ccc(CCN(C)c2c3ccccc3nc3ccccc23)cc1OC as the molecule, how does the IC50 [15] read?
**A.** Its IC50 is 4.5 µM (active).

**Q.** Which EC50 [16] does the source give for CN1CCN(C(=O)COc2ccc(N(C)S(=O)(=O)c3ccc(F)cc3)cc2)CC1 here?
**A.** The EC50 was 0.346 µM (active).

**Q.** What about the EC50 [17] of the same molecule?
**A.** Its EC50 is > 60 µM (not active).

**Q.** What about the AC50 [18] of the same molecule?
**A.** The AC50 was > 30 µM (inactive).
